We go through 7 molecules from ChEMBL document CHEMBL1201862, “PubChem BioAssay data set” (2004).

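Cultured in 96-well plates, cells were exposed to test compound for 48 hours across five concentrations. GI50 is the concentration that inhibits growth by half.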 Calls of active or inactive are those of the source. No stated cut-off is given here; in the data, active = GI50 up to about 1.1 µM and inactive = higher.

Among the test systems are SF-539; SN12C; MOLT-4; ACHN; HCT-116; Malme-3M; LOX IMVI; DU-145; IGROV-1; M14; A498; RXF 393; PC-3; MCF7; SK-MEL-2; KM12; COLO 205; SNB-19; NCI-H23; SW-620.
What all share (experiment): NCI tumour cell line growth inhibition, 48 h

Consider `O=C1c2ccccc2C(=O)N1CCCSc1ccccc1`, for which the GI50 was > 100 µM (inactive) in the assay with SF-539; 71.3 µM (inactive) in the assay on SN12C; 31.8 µM (inactive) in the assay on MOLT-4; > 100 µM (inactive) with ACHN; 94.2 µM (inactive) with HCT-116; > 100 µM (inactive) in the assay with Malme-3M. Also, the GI50 with LOX IMVI was > 100 µM (inactive); in the assay on DU-145, > 100 µM (inactive); in the assay on IGROV-1, 93.8 µM (inactive); in the assay on M14, 66.7 µM (inactive); with A498, 33 µM (inactive); in the assay on RXF 393, 63.7 µM (inactive). Also, the GI50 is 92 µM (inactive) in the assay with PC-3; 78.3 µM (inactive) in the assay on MCF7; > 100 µM (inactive) in the assay with SK-MEL-2; 94.4 µM (inactive) in the assay with KM12; 66.1 µM (inactive) with COLO 205; > 100 µM (inactive) in the assay on SNB-19. Besides, the GI50 in the assay with NCI-H23 is 86.7 µM (inactive); with SW-620, > 100 µM (inactive).

`CN(C)c1ccc(/C(F)=C(F)/C(F)=C(F)/C(F)=C(\F)c2ccc(Br)cc2)cc1`: the GI50 was 33 µM (inactive) with SF-539; 6.61 µM (inactive) in the assay on SN12C; 25.6 µM (inactive) in the assay on MOLT-4; 52.8 µM (inactive) with ACHN; 5.33 µM (inactive) with HCT-116; 9.29 µM (inactive) with Malme-3M. For the same molecule, the GI50 was 19.8 µM (inactive) with LOX IMVI; 19.4 µM (inactive) in the assay on DU-145; 27.6 µM (inactive) in the assay on IGROV-1; 16.1 µM (inactive) in the assay on M14; 16.7 µM (inactive) in the assay on A498; 9.2 µM (inactive) in the assay with RXF 393. Moreover, the GI50 in the assay on PC-3 was 15.2 µM (inactive); in the assay on MCF7 it was 9.46 µM (inactive); in the assay on SK-MEL-2, 25.9 µM (inactive); with KM12, 9.53 µM (inactive); in the assay with COLO 205, 23.4 µM (inactive); with SNB-19, 23.7 µM (inactive). Further, the figures for the GI50 in the assay with NCI-H23 and with SW-620 were 14.8 µM (inactive) and 22.1 µM (inactive), respectively.

For the molecule `CC1OC(OC2C(CO)OC(O[C@H]3CC[C@@]4(C)C(=CC[C@H]5[C@@H]6C[C@@H]7O[C@](O)(CC[C@H](CO)COC8OC(CO)C(O)C(O)C8O)[C@@H](C)[C@@H]7[C@@]6(C)CC[C@@H]54)C3)C(OC3OC(C)C(O)C(O)C3O)C2O)C(O)C(O)C1O` (stereo not given in full), the GI50 in the assay with SF-539, in the assay on SN12C, in the assay on MOLT-4, in the assay on ACHN, in the assay on HCT-116 and in the assay on Malme-3M was > 100 µM (inactive) each time. Moreover, the GI50 in the assay with LOX IMVI, with DU-145, in the assay on IGROV-1, in the assay on M14, in the assay with A498 and in the assay with RXF 393 was > 100 µM (inactive) in each case. Besides, the GI50 in the assay on PC-3, in the assay with MCF7, with SK-MEL-2, in the assay with KM12, with COLO 205 and in the assay with SNB-19 was > 100 µM (inactive) in each case. Besides, the GI50 in the assay on NCI-H23 and in the assay with SW-620 was > 100 µM (inactive) in each case.

Take `CC1CC[C@@]2(OC1)OC1C[C@H]3[C@@H]4CC=C5CC(OC6OC(CO)C(OC7OC(CO)C(O)C(OC8OCC(O)C(O)C8O)C7OC7OC(CO)C(O)C(O)C7O)C(O)C6O)CCC5(C)[C@H]4CCC3(C)C1[C@@H]2C` (stereo not given in full): the GI50 in the assay with SF-539 is 3.6 µM (inactive); in the assay with SN12C, 4.58 µM (inactive); with MOLT-4 it was 9.18 µM (inactive); in the assay on ACHN, 4.97 µM (inactive); in the assay on HCT-116, 4.44 µM (inactive); in the assay on Malme-3M it was > 25 µM (inactive). Also, the GI50 with LOX IMVI is 4.48 µM (inactive); in the assay on DU-145, 4.86 µM (inactive); with IGROV-1 it was 3.94 µM (inactive); in the assay with M14, 11.2 µM (inactive); in the assay with A498, 4.69 µM (inactive); with RXF 393 it was 4.76 µM (inactive). In addition, the GI50 is 4.06 µM (inactive) in the assay on PC-3; 6.3 µM (inactive) in the assay on MCF7; 11.7 µM (inactive) in the assay on SK-MEL-2; 5.32 µM (inactive) in the assay with KM12; 4.59 µM (inactive) with COLO 205; 10.3 µM (inactive) with SNB-19. For the same molecule, the results for the GI50 with NCI-H23 and in the assay with SW-620 were 5.64 µM (inactive) and 3.98 µM (inactive), respectively.

`COc1ccc2c(c1)C1=NCCN(CCO)c3ccc([N+](=O)[O-])c(c31)N2`: the GI50 in the assay with SF-539 was 0.415 µM (active); with SN12C, 0.429 µM (active); in the assay with MOLT-4 it was 0.0755 µM (active); in the assay with ACHN, 0.348 µM (active); in the assay on HCT-116 it was 0.232 µM (active); in the assay on Malme-3M, 0.35 µM (active). Besides, the GI50 in the assay on LOX IMVI was 0.127 µM (active); with DU-145, 1.02 µM (active); in the assay on IGROV-1, 0.519 µM (active); in the assay on M14 it was 0.407 µM (active); in the assay on A498, 0.798 µM (active); in the assay on RXF 393, 0.494 µM (active). Also, the GI50 in the assay on PC-3 was 0.34 µM (active); in the assay with MCF7, 0.42 µM (active); in the assay on SK-MEL-2 it was 0.587 µM (active); in the assay on KM12, 0.505 µM (active); in the assay with COLO 205, 0.298 µM (active); with SNB-19 it was 0.59 µM (active). Moreover, the GI50 is 0.652 µM (active) with NCI-H23 and 0.187 µM (active) in the assay on SW-620.

For `COC(=O)CCC(=O)c1ccc2c(c1)CC1(C2)Cc2ccc3c(c2C1)CCCC3=O` (stereo not given), the GI50 in the assay with SF-539 was 11.9 µM (inactive); in the assay with SN12C it was 38.1 µM (inactive); in the assay with MOLT-4, 0.489 µM (active); in the assay with ACHN, 21.1 µM (inactive); in the assay on HCT-116, > 34 µM (inactive); in the assay on Malme-3M, 18.4 µM (inactive). For the same molecule, the GI50 is 20 µM (inactive) in the assay with LOX IMVI; 33.7 µM (inactive) in the assay on DU-145; 21.9 µM (inactive) in the assay on IGROV-1; 9.1 µM (inactive) in the assay on M14; 20.7 µM (inactive) with A498; > 53 µM (inactive) in the assay on RXF 393. Further, the GI50 with PC-3 is 24.3 µM (inactive); in the assay on MCF7, 12.2 µM (inactive); with SK-MEL-2, 7.31 µM (inactive); in the assay with KM12, 14.7 µM (inactive); in the assay with COLO 205, 21.5 µM (inactive); in the assay with SNB-19, 27.2 µM (inactive). Moreover, the GI50 in the assay on NCI-H23 was 31 µM (inactive); with SW-620, 20.7 µM (inactive).

`COc1ccc(/C=C(/C(=O)c2ccc(Cl)cc2)N2C=CC=CC2=C(C#N)C#N)cc1OC`: the GI50 with SF-539 was 3.92 µM (inactive); in the assay with SN12C, 17.4 µM (inactive); in the assay with MOLT-4, 0.685 µM (active); with ACHN, 3.31 µM (inactive); with HCT-116 it was 2.06 µM (inactive); in the assay with Malme-3M it was 0.914 µM (active). Besides, the GI50 in the assay on LOX IMVI is 3.39 µM (inactive); in the assay on DU-145 it was 13.7 µM (inactive); in the assay on IGROV-1, 5.09 µM (inactive); in the assay on M14 it was 3.7 µM (inactive); in the assay with A498, 14.9 µM (inactive); with RXF 393 it was 2.03 µM (inactive). Moreover, the GI50 was 2.74 µM (inactive) with PC-3; 3.66 µM (inactive) in the assay on MCF7; 15.3 µM (inactive) in the assay with SK-MEL-2; 19.1 µM (inactive) with KM12; 1.58 µM (inactive) with COLO 205; 15.1 µM (inactive) with SNB-19. Besides, the GI50 in the assay with NCI-H23 was 11.5 µM (inactive); in the assay with SW-620, 1.91 µM (inactive).
